target: Prostaglandin E2 receptor EP2 subtype (Homo sapiens, UniProt P43116); assay: Binding Assay: Measurement of EP2 receptor binding action was performed in accordance with the method of Abramovitz et al. (Biochimica et Biophysica Acta, 1483, 285 (2000)). A test compound dissolved in dimethyl sulfoxide (final concentration: 1.0 (V/V) %) and [3H]prostaglandin E2 (NET-428, manufactured by PerkinElmer) (final concentration: 10 nM) were added to a buffer solution (10 mM MES-KOH (pH 6.0), 10 mM MgCl2, 1 mM EDTA) in which 10 μg of a membrane fraction of HEK293 cells expressing human EP2 receptor (ES-562-M, manufactured by Euroscreen) was suspended, and then incubated at 30° C. for 60 minutes. The membrane fraction was recovered on glass fiber filter paper (GF/B, manufactured by Whatman) using a cell harvester (M30R, manufactured by Brandel), and after washing with a buffer solution (10 mM MES-KOH (pH 6.0), 10 mM MgCl2), radioactivity was measured with a liquid scintillation analyzer (2000CA, manufactured by Packard).; type: cell membranes
Sequence (P43116 whole entry): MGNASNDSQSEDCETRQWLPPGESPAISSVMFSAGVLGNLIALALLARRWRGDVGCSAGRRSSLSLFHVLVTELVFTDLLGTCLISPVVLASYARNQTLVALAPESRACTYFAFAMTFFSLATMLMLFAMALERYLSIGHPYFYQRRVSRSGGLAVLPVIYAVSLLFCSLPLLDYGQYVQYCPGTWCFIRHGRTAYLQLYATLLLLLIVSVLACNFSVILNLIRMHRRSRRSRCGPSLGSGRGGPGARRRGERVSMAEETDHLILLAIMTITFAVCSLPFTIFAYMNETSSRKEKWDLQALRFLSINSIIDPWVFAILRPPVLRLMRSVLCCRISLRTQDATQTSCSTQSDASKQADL

Going from CCOc1ccccc1-c1ccc(CN(Cc2cccc(NCC(=O)O)n2)S(=O)(=O)c2ccccn2)cc1 to CC#Cc1ccccc1-c1ccc(CN(Cc2cccc(NCC(=O)O)n2)S(=O)(=O)c2ccccn2)cc1, the Ki falls from 2.6 nM to 0.75 nM (3.5-fold).

C=CCc1cccc(-c2ccc(CN(Cc3cccc(NCC(=O)O)n3)S(=O)(=O)c3ccccn3)cc2)c1 and CCc1cccc(-c2ccc(CN(Cc3cccc(NCC(=O)O)n3)S(=O)(=O)c3ccccn3)cc2)c1 are within 1.5-fold of each other in Ki: 1.7 nM for the first, 1.4 nM for the second.

Compared with COc1cccc(-c2ccc(CN(Cc3cccc(NCC(=O)O)n3)S(=O)(=O)c3ccccn3)cc2)c1, Cc1cccc(-c2ccc(CN(Cc3cccc(NCC(=O)O)n3)S(=O)(=O)c3ccccn3)cc2)c1 is 1.8-fold higher in Ki: 1.2 nM for the first, 2.2 nM for the second.

Compared with CC#Cc1cccc(-c2ccc(CN(Cc3cccc(NCC(=O)O)n3)S(=O)(=O)c3cccc(F)c3)cc2)c1, CC#Cc1ccc(-c2ccc(CN(Cc3cccc(NCC(=O)O)n3)S(=O)(=O)c3ccccn3)cc2)cc1 is 4.9-fold higher in Ki: 1.4 nM for the first, 6.8 nM for the second.

First: CCCc1cccc(-c2ccc(CN(Cc3cccc(NCC(=O)O)n3)S(=O)(=O)c3ccccn3)cc2)c1
Second: CCOc1ccc(-c2ccc(CN(Cc3cccc(NCC(=O)O)n3)S(=O)(=O)c3ccccn3)cc2)cc1
The Ki of the first is lower: 1.1 nM for the first, greater than 10 nM for the second. The first binds more tightly here.

O=C(O)CNc1cccc(CN(Cc2ccc(-c3ccc(Cl)cc3)cc2)S(=O)(=O)c2cccnc2)n1 and Cc1cnc(-c2ccc(CN(Cc3cccc(NCC(=O)O)n3)S(=O)(=O)c3ccccn3)cc2)s1 cannot be ordered by Ki: greater than 10 nM for the first, greater than 10 nM for the second.
